Test results taken from patent publication US12497365B2, “4-pyridinyl formamide compound or derivative thereof, preparation method therefor, herbicidal composition and use thereof” (Qingdao Kingagroot Chemical Compound Co., Ltd., priority 2019, dated 2025).

What was measured:
Test in all cases: Weeding effect in post-emergence stage
Type in all cases: in vivo
Conditions in all cases: active ingredient 2000 g/ha, 3 weeks after application, fresh weight control rate
Abutilon theophrasti = test system: Abutilon theophrasti
How it was run: (§1)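 Greenhouse-grown weeds at the 2-3 leaf stage, about 2 weeks after sowing, were sprayed with compound at 2000-125 g/ha. The spray solution was made from acetone with Tween 80 and 1.5 L/ha methyl oleate concentrate as synergist. Fresh-weight growth control was scored 3 weeks after treatment.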

Chenopodium album = test system: Chenopodium album
How it was run: as §1

Descurainia sophia = test system: Descurainia sophia
How it was run: as §1

[1] = test system: Amaranthus retroflexus L.
How it was run: as §1

SMILES: COc1ncc(-c2nccc(C(=O)Nc3nnnn3C)c2Cl)cn1 [Compound 1-161]
- Weeding effect, activity level (growth control rate), Abutilon theophrasti (Abutilon theophrasti): 5 (Level 5: growth control rate is above 85%)
- Weeding effect, activity level (growth control rate), Chenopodium album (Chenopodium album): 5 (Level 5: growth control rate is above 85%)
- Weeding effect, activity level (growth control rate), Descurainia sophia (Descurainia sophia): 5 (Level 5: growth control rate is above 85%)
- Weeding effect, activity level (growth control rate), Amaranthus retroflexus L. [1]: 5 (Level 5: growth control rate is above 85%)

SMILES: COc1ncc(-c2nccc(C(=O)Nc3nnnn3C)c2Cl)c(OC)n1 [Compound 1-162]
- Weeding effect, activity level (growth control rate), Abutilon theophrasti (Abutilon theophrasti): 5 (Level 5: growth control rate is above 85%)
- Weeding effect, activity level (growth control rate), Chenopodium album (Chenopodium album): 5 (Level 5: growth control rate is above 85%)
- Weeding effect, activity level (growth control rate), Descurainia sophia (Descurainia sophia): 5 (Level 5: growth control rate is above 85%)
- Weeding effect, activity level (growth control rate), Amaranthus retroflexus L. [1]: 5 (Level 5: growth control rate is above 85%)

SMILES: Cn1nnnc1NC(=O)c1ccnc(-c2ncc(C#N)cn2)c1Cl [Compound 1-163]
- Weeding effect, activity level (growth control rate), Abutilon theophrasti (Abutilon theophrasti): 5 (Level 5: growth control rate is above 85%)
- Weeding effect, activity level (growth control rate), Chenopodium album (Chenopodium album): 5 (Level 5: growth control rate is above 85%)
- Weeding effect, activity level (growth control rate), Descurainia sophia (Descurainia sophia): 5 (Level 5: growth control rate is above 85%)
- Weeding effect, activity level (growth control rate), Amaranthus retroflexus L. [1]: 5 (Level 5: growth control rate is above 85%)

SMILES: Cn1nnnc1NC(=O)c1ccnc(-c2ncc(F)cn2)c1Cl [Compound 1-164]
- Weeding effect, activity level (growth control rate), Abutilon theophrasti (Abutilon theophrasti): 5 (Level 5: growth control rate is above 85%)
- Weeding effect, activity level (growth control rate), Chenopodium album (Chenopodium album): 5 (Level 5: growth control rate is above 85%)
- Weeding effect, activity level (growth control rate), Descurainia sophia (Descurainia sophia): 5 (Level 5: growth control rate is above 85%)
- Weeding effect, activity level (growth control rate), Amaranthus retroflexus L. [1]: 5 (Level 5: growth control rate is above 85%)

SMILES: Cn1nnnc1NC(=O)c1ccnc(-c2ccnc(C#N)n2)c1Cl [Compound 1-165]
- Weeding effect, activity level (growth control rate), Abutilon theophrasti (Abutilon theophrasti): 5 (Level 5: growth control rate is above 85%)
- Weeding effect, activity level (growth control rate), Chenopodium album (Chenopodium album): 5 (Level 5: growth control rate is above 85%)
- Weeding effect, activity level (growth control rate), Descurainia sophia (Descurainia sophia): 5 (Level 5: growth control rate is above 85%)
- Weeding effect, activity level (growth control rate), Amaranthus retroflexus L. [1]: 5 (Level 5: growth control rate is above 85%)

SMILES: Cn1nnnc1NC(=O)c1ccnc(-n2cc(F)cn2)c1Cl [Compound 1-166]
- Weeding effect, activity level (growth control rate), Abutilon theophrasti (Abutilon theophrasti): 5 (Level 5: growth control rate is above 85%)
- Weeding effect, activity level (growth control rate), Chenopodium album (Chenopodium album): 5 (Level 5: growth control rate is above 85%)
- Weeding effect, activity level (growth control rate), Descurainia sophia (Descurainia sophia): 5 (Level 5: growth control rate is above 85%)
- Weeding effect, activity level (growth control rate), Amaranthus retroflexus L. [1]: 5 (Level 5: growth control rate is above 85%)

SMILES: Cn1nnnc1NC(=O)c1ccnc(-c2cn[nH]c2)c1Cl [Compound 1-167]
- Weeding effect, activity level (growth control rate), Abutilon theophrasti (Abutilon theophrasti): 5 (Level 5: growth control rate is above 85%)
- Weeding effect, activity level (growth control rate), Chenopodium album (Chenopodium album): 5 (Level 5: growth control rate is above 85%)
- Weeding effect, activity level (growth control rate), Descurainia sophia (Descurainia sophia): 5 (Level 5: growth control rate is above 85%)
- Weeding effect, activity level (growth control rate), Amaranthus retroflexus L. [1]: 5 (Level 5: growth control rate is above 85%)

SMILES: Cn1cc(-c2nccc(C(=O)Nc3nnnn3C)c2Cl)cn1 [Compound 1-168]
- Weeding effect, activity level (growth control rate), Abutilon theophrasti (Abutilon theophrasti): 5 (Level 5: growth control rate is above 85%)
- Weeding effect, activity level (growth control rate), Chenopodium album (Chenopodium album): 5 (Level 5: growth control rate is above 85%)
- Weeding effect, activity level (growth control rate), Descurainia sophia (Descurainia sophia): 5 (Level 5: growth control rate is above 85%)
- Weeding effect, activity level (growth control rate), Amaranthus retroflexus L. [1]: 5 (Level 5: growth control rate is above 85%)

SMILES: Cc1nn(C)cc1-c1nccc(C(=O)Nc2nnnn2C)c1Cl [Compound 1-169]
- Weeding effect, activity level (growth control rate), Abutilon theophrasti (Abutilon theophrasti): 5 (Level 5: growth control rate is above 85%)
- Weeding effect, activity level (growth control rate), Chenopodium album (Chenopodium album): 5 (Level 5: growth control rate is above 85%)
- Weeding effect, activity level (growth control rate), Descurainia sophia (Descurainia sophia): 5 (Level 5: growth control rate is above 85%)
- Weeding effect, activity level (growth control rate), Amaranthus retroflexus L. [1]: 5 (Level 5: growth control rate is above 85%)

SMILES: Cc1c(-c2nccc(C(=O)Nc3nnnn3C)c2Cl)cnn1C [Compound 1-170]
- Weeding effect, activity level (growth control rate), Abutilon theophrasti (Abutilon theophrasti): 5 (Level 5: growth control rate is above 85%)
- Weeding effect, activity level (growth control rate), Chenopodium album (Chenopodium album): 5 (Level 5: growth control rate is above 85%)
- Weeding effect, activity level (growth control rate), Descurainia sophia (Descurainia sophia): 5 (Level 5: growth control rate is above 85%)
- Weeding effect, activity level (growth control rate), Amaranthus retroflexus L. [1]: 5 (Level 5: growth control rate is above 85%)

SMILES: Cc1[nH]ncc1-c1nccc(C(=O)Nc2nnnn2C)c1Cl [Compound 1-171]
- Weeding effect, activity level (growth control rate), Abutilon theophrasti (Abutilon theophrasti): 5 (Level 5: growth control rate is above 85%)
- Weeding effect, activity level (growth control rate), Chenopodium album (Chenopodium album): 5 (Level 5: growth control rate is above 85%)
- Weeding effect, activity level (growth control rate), Descurainia sophia (Descurainia sophia): 5 (Level 5: growth control rate is above 85%)
- Weeding effect, activity level (growth control rate), Amaranthus retroflexus L. [1]: 5 (Level 5: growth control rate is above 85%)

SMILES: CCn1cc(-c2nccc(C(=O)Nc3nnnn3C)c2Cl)cn1 [Compound 1-172]
- Weeding effect, activity level (growth control rate), Abutilon theophrasti (Abutilon theophrasti): 5 (Level 5: growth control rate is above 85%)
- Weeding effect, activity level (growth control rate), Chenopodium album (Chenopodium album): 5 (Level 5: growth control rate is above 85%)
- Weeding effect, activity level (growth control rate), Descurainia sophia (Descurainia sophia): 5 (Level 5: growth control rate is above 85%)
- Weeding effect, activity level (growth control rate), Amaranthus retroflexus L. [1]: 5 (Level 5: growth control rate is above 85%)

SMILES: CCCn1cc(-c2nccc(C(=O)Nc3nnnn3C)c2Cl)cn1 [Compound 1-173]
- Weeding effect, activity level (growth control rate), Abutilon theophrasti (Abutilon theophrasti): 5 (Level 5: growth control rate is above 85%)
- Weeding effect, activity level (growth control rate), Chenopodium album (Chenopodium album): 5 (Level 5: growth control rate is above 85%)
- Weeding effect, activity level (growth control rate), Descurainia sophia (Descurainia sophia): 5 (Level 5: growth control rate is above 85%)
- Weeding effect, activity level (growth control rate), Amaranthus retroflexus L. [1]: 5 (Level 5: growth control rate is above 85%)

SMILES: Cn1nnnc1NC(=O)c1ccnc(-c2cnn(C(F)F)c2)c1Cl [Compound 1-174]
- Weeding effect, activity level (growth control rate), Abutilon theophrasti (Abutilon theophrasti): 5 (Level 5: growth control rate is above 85%)
- Weeding effect, activity level (growth control rate), Chenopodium album (Chenopodium album): 5 (Level 5: growth control rate is above 85%)
- Weeding effect, activity level (growth control rate), Descurainia sophia (Descurainia sophia): 5 (Level 5: growth control rate is above 85%)
- Weeding effect, activity level (growth control rate), Amaranthus retroflexus L. [1]: 5 (Level 5: growth control rate is above 85%)

SMILES: Cn1nnnc1NC(=O)c1ccnc(-c2cnn(Cc3ccccc3)c2)c1Cl [Compound 1-175]
- Weeding effect, activity level (growth control rate), Abutilon theophrasti (Abutilon theophrasti): 5 (Level 5: growth control rate is above 85%)
- Weeding effect, activity level (growth control rate), Chenopodium album (Chenopodium album): 5 (Level 5: growth control rate is above 85%)
- Weeding effect, activity level (growth control rate), Descurainia sophia (Descurainia sophia): 5 (Level 5: growth control rate is above 85%)
- Weeding effect, activity level (growth control rate), Amaranthus retroflexus L. [1]: 5 (Level 5: growth control rate is above 85%)

SMILES: CCOC(C)n1cc(-c2nccc(C(=O)Nc3nnnn3C)c2Cl)cn1 (stereo not shown) [Compound 1-176]
- Weeding effect, activity level (growth control rate), Abutilon theophrasti (Abutilon theophrasti): 5 (Level 5: growth control rate is above 85%)
- Weeding effect, activity level (growth control rate), Chenopodium album (Chenopodium album): 5 (Level 5: growth control rate is above 85%)
- Weeding effect, activity level (growth control rate), Descurainia sophia (Descurainia sophia): 5 (Level 5: growth control rate is above 85%)
- Weeding effect, activity level (growth control rate), Amaranthus retroflexus L. [1]: 5 (Level 5: growth control rate is above 85%)

SMILES: Cn1nnnc1NC(=O)c1ccnc(-c2ccn[nH]2)c1Cl [Compound 1-177]
- Weeding effect, activity level (growth control rate), Abutilon theophrasti (Abutilon theophrasti): 5 (Level 5: growth control rate is above 85%)
- Weeding effect, activity level (growth control rate), Chenopodium album (Chenopodium album): 5 (Level 5: growth control rate is above 85%)
- Weeding effect, activity level (growth control rate), Descurainia sophia (Descurainia sophia): 5 (Level 5: growth control rate is above 85%)
- Weeding effect, activity level (growth control rate), Amaranthus retroflexus L. [1]: 5 (Level 5: growth control rate is above 85%)

SMILES: Cn1nccc1-c1nccc(C(=O)Nc2nnnn2C)c1Cl [Compound 1-178]
- Weeding effect, activity level (growth control rate), Abutilon theophrasti (Abutilon theophrasti): 5 (Level 5: growth control rate is above 85%)
- Weeding effect, activity level (growth control rate), Chenopodium album (Chenopodium album): 5 (Level 5: growth control rate is above 85%)
- Weeding effect, activity level (growth control rate), Descurainia sophia (Descurainia sophia): 5 (Level 5: growth control rate is above 85%)
- Weeding effect, activity level (growth control rate), Amaranthus retroflexus L. [1]: 5 (Level 5: growth control rate is above 85%)

SMILES: Cc1cc(-c2nccc(C(=O)Nc3nnnn3C)c2Cl)n(C)n1 [Compound 1-179]
- Weeding effect, activity level (growth control rate), Abutilon theophrasti (Abutilon theophrasti): 5 (Level 5: growth control rate is above 85%)
- Weeding effect, activity level (growth control rate), Chenopodium album (Chenopodium album): 5 (Level 5: growth control rate is above 85%)
- Weeding effect, activity level (growth control rate), Descurainia sophia (Descurainia sophia): 5 (Level 5: growth control rate is above 85%)
- Weeding effect, activity level (growth control rate), Amaranthus retroflexus L. [1]: 5 (Level 5: growth control rate is above 85%)

SMILES: Cn1nc(C(F)(F)F)cc1-c1nccc(C(=O)Nc2nnnn2C)c1Cl [Compound 1-180]
- Weeding effect, activity level (growth control rate), Abutilon theophrasti (Abutilon theophrasti): 5 (Level 5: growth control rate is above 85%)
- Weeding effect, activity level (growth control rate), Chenopodium album (Chenopodium album): 5 (Level 5: growth control rate is above 85%)
- Weeding effect, activity level (growth control rate), Descurainia sophia (Descurainia sophia): 5 (Level 5: growth control rate is above 85%)
- Weeding effect, activity level (growth control rate), Amaranthus retroflexus L. [1]: 5 (Level 5: growth control rate is above 85%)

SMILES: Cn1nnnc1NC(=O)c1ccnc(-c2ccnn2C(F)F)c1Cl [Compound 1-181]
- Weeding effect, activity level (growth control rate), Abutilon theophrasti (Abutilon theophrasti): 5 (Level 5: growth control rate is above 85%)
- Weeding effect, activity level (growth control rate), Chenopodium album (Chenopodium album): 5 (Level 5: growth control rate is above 85%)
- Weeding effect, activity level (growth control rate), Descurainia sophia (Descurainia sophia): 5 (Level 5: growth control rate is above 85%)
- Weeding effect, activity level (growth control rate), Amaranthus retroflexus L. [1]: 5 (Level 5: growth control rate is above 85%)

SMILES: Cn1nnnc1NC(=O)c1ccnc(-c2ccnn2C2CCCCO2)c1Cl (stereo not shown) [Compound 1-182]
- Weeding effect, activity level (growth control rate), Abutilon theophrasti (Abutilon theophrasti): 5 (Level 5: growth control rate is above 85%)
- Weeding effect, activity level (growth control rate), Chenopodium album (Chenopodium album): 5 (Level 5: growth control rate is above 85%)
- Weeding effect, activity level (growth control rate), Descurainia sophia (Descurainia sophia): 5 (Level 5: growth control rate is above 85%)
- Weeding effect, activity level (growth control rate), Amaranthus retroflexus L. [1]: 5 (Level 5: growth control rate is above 85%)
